# Experiments:
# Test in all cases: relative viability (nuclei count vs DMSO), 5 days (fraction); higher = more cells survive
# [1] = compound: CCN1C(=O)C2=CC(=C(N=C2N(C1=O)C3CC3)N)C(=O)N + CC1(C)CCC(c2ccc(Cl)cc2)=C(CN2CCN(c3ccc(C(=O)NS(=O)(=O)c4ccc(N[C@H](CCN5CCOCC5)CSc5ccccc5)c(S(=O)(=O)C(F)(F)F)c4)cc3)CC2)C1 [Navitoclax] (partner 0.5 µM)
# Summary of the method: (§1)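 Dosing by pin tool came one day after lung cancer cell lines were seeded in 1536-well plates, using either one drug or a fixed anchor-drug dose plus five library-drug doses (not always all listed) in √10 steps. After 5 days, nuclei were counted on 4× images. Relative viability is treated-well nuclei count divided by vehicle-well nuclei count, and values are medians of duplicate plates.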
# [2] = compound: CCN1C(=O)C2=CC(=C(N=C2N(C1=O)C3CC3)N)C(=O)N + COc1cc2c(Oc3ccc(NC(=O)C4(C(=O)Nc5ccc(F)cc5)CC4)cc3F)ccnc2cc1OCCCN1CCOCC1 [Foretinib] (partner 0.25 µM)
# Summary of the method: as §1
# [3] = compound: CCN1C(=O)C2=CC(=C(N=C2N(C1=O)C3CC3)N)C(=O)N + COc1cccc2cc(-c3nc([C@H]4CC[C@H](C(=O)O)CC4)n4ncnc(N)c34)[nH]c12 [OSI-027] (partner 0.5 µM)
# Summary of the method: as §1
# [4] = compound: CCN1C(=O)C2=CC(=C(N=C2N(C1=O)C3CC3)N)C(=O)N + Cc1cc(Nc2cc(N3CCN(C)CC3)nc(Sc3ccc(NC(=O)C4CC4)cc3)n2)n[nH]1 [Tozasertib] (partner 0.1 µM)
# Summary of the method: as §1
# [5] = compound: CCN1C(=O)C2=CC(=C(N=C2N(C1=O)C3CC3)N)C(=O)N + Nc1nc2[nH]cc(CCc3ccc(C(=O)N[C@@H](CCC(=O)O)C(=O)O)cc3)c2c(=O)[nH]1 [Pemetrexed] (partner 0.2 µM)
# Summary of the method: as §1
Cell Line,relative viability ([1]; first compound 0.253 µM),relative viability ([1]; first compound 0.8 µM),relative viability ([1]; first compound 2.53 µM),relative viability ([1]; first compound 8 µM),relative viability ([2]; first compound 0.253 µM),relative viability ([2]; first compound 0.8 µM),relative viability ([2]; first compound 2.53 µM),relative viability ([2]; first compound 8 µM),relative viability ([3]; first compound 0.253 µM),relative viability ([3]; first compound 0.8 µM),relative viability ([3]; first compound 2.53 µM),relative viability ([3]; first compound 8 µM),relative viability ([4]; first compound 0.253 µM),relative viability ([4]; first compound 0.8 µM),relative viability ([4]; first compound 2.53 µM),relative viability ([4]; first compound 8 µM),relative viability ([5]; first compound 0.253 µM),relative viability ([5]; first compound 0.8 µM),relative viability ([5]; first compound 2.53 µM),relative viability ([5]; first compound 8 µM)
201T,1.26,1.21,1.14,1.22,1.01,1.07,1.15,1.2,0.431,0.729,0.761,0.667,1.01,0.993,0.973,1.04,0.328,0.309,0.34,0.313
A549,1.14,1.13,1.22,1.16,0.898,1.06,0.809,1.01,–,–,–,–,–,–,–,–,–,–,–,–
A-427,0.994,0.965,0.95,0.98,1.13,1.13,1.08,1.21,0.46,0.487,0.49,0.466,0.223,0.226,0.208,0.206,0.952,0.927,1.08,0.927
ABC-1,–,–,–,–,1.19,0.873,0.908,1.05,0.438,0.474,0.538,0.469,0.17,0.167,0.178,0.149,–,–,–,–
BEN,0.074,0.0565,0.0783,0.0841,1.13,0.618,0.69,0.558,0.297,0.321,0.273,0.295,0.629,0.528,0.443,0.525,0.896,0.842,0.929,0.699
CAL-12T,1.14,1.1,1.06,1.2,1.09,1.18,1.09,1.01,0.689,0.478,0.543,0.512,0.271,0.269,0.282,0.223,1.02,1.31,1.06,1.15
COR-L23,1.05,0.939,1.03,1.04,0.91,1.03,1.08,0.947,0.883,0.819,0.743,0.867,0.197,0.183,0.164,0.161,0.188,0.202,0.191,0.213
COR-L 105,0.847,0.74,0.586,0.794,0.748,1.01,0.864,1.01,0.873,0.729,0.634,0.651,0.346,0.355,0.403,0.327,0.941,1.01,0.991,1.16
ChaGo-K-1,1.05,0.782,1.11,0.958,0.873,0.97,0.895,0.948,0.516,0.518,0.683,0.502,0.218,0.215,0.221,0.2,0.272,0.264,0.263,0.246
EKVX,0.929,0.897,0.952,0.989,0.785,0.743,0.875,0.639,0.803,0.751,0.675,0.498,0.359,0.494,0.358,0.384,0.397,0.414,0.282,0.351
EMC-BAC-2,1.2,1.17,1.18,1.32,1.17,1,0.935,1.17,0.474,0.336,0.33,0.379,0.319,0.249,0.255,0.304,0.461,–,0.403,0.431
EPLC-272H,0.994,1.26,1.13,1.2,0.84,0.662,0.613,0.686,0.277,0.258,0.266,0.277,0.289,0.227,0.229,0.224,–,0.265,0.301,0.368
H3255,0.625,0.509,0.617,0.559,0.856,0.802,0.932,1.01,0.57,0.57,0.577,0.994,0.606,0.682,0.533,1.3,0.588,0.555,0.536,0.558
HARA,1.15,1.13,1.08,1.12,0.884,0.989,0.857,0.926,0.415,0.576,0.473,0.54,0.12,0.129,0.0936,0.111,0.223,0.232,0.246,0.216
HCC-15,0.692,0.753,0.683,0.69,1.1,1.05,1.07,0.985,0.648,0.72,0.685,0.663,0.46,0.389,0.385,0.502,0.231,0.221,0.2,0.235
HCC-44,1.04,0.994,0.985,1.02,–,–,–,–,0.568,0.446,0.527,0.421,0.634,0.965,0.789,0.875,0.588,0.641,0.613,0.668
HCC-78,0.436,0.788,0.691,0.94,0.532,–,0.582,0.502,0.434,–,0.354,0.387,0.422,–,0.289,0.453,0.866,0.949,0.813,0.842
